Assay results: the supplement of paper PMC10307832

Experiments:
Assay in all cases: relative viability (nuclei count vs DMSO), 5 days (fraction); higher = more cells survive
Crenolanib + Vorinostat = compound: CC1(COc2ccc3c(c2)ncn3-c2ccc3cccc(N4CCC(N)CC4)c3n2)COC1 [Crenolanib] + O=C(CCCCCCC(=O)Nc1ccccc1)NO [Vorinostat] (partner 1 µM)
Summary of the method: (§1)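 Lung cancer cell lines were pin-tool dosed in 1536-well plates on the day after seeding, with either a lone drug or a fixed anchor-drug dose plus five library-drug doses (not always all listed) in √10 steps. Nuclei were counted on 4× images after 5 days. Relative viability is the ratio of treated-well to vehicle-well nuclei counts, with each value a median of duplicate plates.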

Tivantinib + Trametinib = compound: O=C1NC(=O)[C@@H](c2cn3c4c(cccc24)CCC3)[C@@H]1c1c[nH]c2ccccc12 [Tivantinib] + CC(=O)Nc1cccc(-n2c(=O)n(C3CC3)c(=O)c3c(Nc4ccc(I)cc4F)n(C)c(=O)c(C)c32)c1 [Trametinib] (partner 0.02 µM)
Summary of the method: as §1

Tivantinib + Navitoclax = compound: O=C1NC(=O)[C@@H](c2cn3c4c(cccc24)CCC3)[C@@H]1c1c[nH]c2ccccc12 [Tivantinib] + CC1(C)CCC(c2ccc(Cl)cc2)=C(CN2CCN(c3ccc(C(=O)NS(=O)(=O)c4ccc(N[C@H](CCN5CCOCC5)CSc5ccccc5)c(S(=O)(=O)C(F)(F)F)c4)cc3)CC2)C1 [Navitoclax] (partner 0.5 µM)
Summary of the method: as §1

Crenolanib + Foretinib = compound: CC1(COc2ccc3c(c2)ncn3-c2ccc3cccc(N4CCC(N)CC4)c3n2)COC1 [Crenolanib] + COc1cc2c(Oc3ccc(NC(=O)C4(C(=O)Nc5ccc(F)cc5)CC4)cc3F)ccnc2cc1OCCCN1CCOCC1 [Foretinib] (partner 0.25 µM)
Summary of the method: as §1

Row | Cell Line | relative viability (Crenolanib + Vorinostat; first compound 0.01 µM) | relative viability (Crenolanib + Vorinostat; first compound 0.03162 µM) | relative viability (Crenolanib + Vorinostat; first compound 0.1 µM) | relative viability (Crenolanib + Vorinostat; first compound 0.3162 µM) | relative viability (Crenolanib + Vorinostat; first compound 1 µM) | relative viability (Tivantinib + Trametinib; first compound 0.01 µM) | relative viability (Tivantinib + Trametinib; first compound 0.03162 µM) | relative viability (Tivantinib + Trametinib; first compound 0.1 µM) | relative viability (Tivantinib + Trametinib; first compound 0.3162 µM) | relative viability (Tivantinib + Navitoclax; first compound 0.01 µM) | relative viability (Tivantinib + Navitoclax; first compound 0.03162 µM) | relative viability (Tivantinib + Navitoclax; first compound 0.1 µM) | relative viability (Tivantinib + Navitoclax; first compound 0.3162 µM) | relative viability (Crenolanib + Foretinib; first compound 0.01 µM) | relative viability (Crenolanib + Foretinib; first compound 0.03162 µM) | relative viability (Crenolanib + Foretinib; first compound 0.1 µM) | relative viability (Crenolanib + Foretinib; first compound 0.3162 µM) | relative viability (Crenolanib + Foretinib; first compound 1 µM)
1 | NCI-H2087 | 0.657 | 0.779 | 0.968 | 0.664 | 0.877 | 0.217 | 0.184 | 0.227 | 0.172 | 1.14 | 0.981 | 0.972 | 1.03 | 1.23 | 1.32 | 1.1 | 1.27 | 1.27
2 | NCI-H2126 | 0.8 | 0.836 | 0.691 | 0.815 | 0.684 | 0.522 | 0.549 | 0.573 | 0.545 | 0.822 | 0.821 | 0.846 | 0.713 | 1.24 | 1.37 | 0.985 | 1.41 | 1.23
3 | NCI-H2170 | 0.793 | 0.928 | 0.697 | 0.985 | 0.793 | 0.934 | 0.847 | 0.844 |  | 0.655 | 0.555 | 0.534 |  | 0.961 | 0.989 | 0.719 | 0.99 | 1.02
4 | NCI-H2228 | 0.721 | 0.768 | 0.633 | 0.687 | 0.871 | 0.608 | 0.396 | 0.494 | 0.227 | 1.15 | 0.71 | 0.837 | 1.01 | 0.994 | 0.923 | 0.693 | 1.14 | 1.04
5 | NCI-H2347 | 0.629 | 0.807 | 0.383 | 0.707 | 0.645 | 0.246 | 0.316 | 0.231 | 0.248 | 0.868 | 0.718 | 0.678 | 0.755 | 0.879 | 0.757 |  | 1.02 | 0.901
6 | NCI-H2405 | 1.03 |  | 0.93 | 1.12 | 0.706 | 0.771 | 0.63 | 0.615 | 0.597 | 1.17 | 0.766 | 0.973 | 0.305 | 1.16 | 1.05 |  | 1.02 | 1.06
7 | NCI-H3122 | 0.976 | 0.938 | 0.765 | 1.14 | 0.796 | 0.219 | 0.216 | 0.199 | 0.202 | 1.02 | 0.971 | 0.974 | 1.01 | 0.927 | 0.98 | 0.985 | 0.963 | 1.04
8 | PC-3 [JPC-3] | 0.75 |  | 0.824 | 0.7 | 0.582 | 0.731 | 0.726 | 0.693 | 0.513 | 0.775 | 0.829 | 0.801 | 0.574 | 1.16 | 1.12 | 0.955 | 1.05 | 1.03
9 | PC-14 | 0.95 | 0.678 | 0.704 | 0.875 | 0.633 | 0.671 | 0.811 | 0.753 | 0.452 | 1.05 | 0.926 | 0.981 | 0.947 | 1.01 | 0.904 | 0.952 | 1.06 | 0.933
10 | RERF-LC-KJ | 0.759 | 0.707 | 0.664 | 0.689 | 0.711 | 0.875 | 0.845 | 0.855 | 0.688 | 0.901 | 1.05 | 0.818 | 0.829 | 0.852 | 0.838 | 0.906 | 0.968 | 0.909
11 | SK-LU-1 | 0.735 | 0.863 | 0.603 | 0.811 | 0.795 | 0.514 | 0.549 | 0.484 | 0.472 | 0.864 | 0.783 | 0.941 | 0.733 | 0.802 | 0.779 | 0.538 | 0.964 | 0.905
12 | SK-MES-1 | 1.15 | 1.16 | 0.954 | 1.1 | 1.05 | 0.645 | 0.511 | 0.521 | 0.582 | 1.24 | 1.17 | 1.1 | 0.896 | 1.05 | 0.876 | 0.974 | 0.936 | 1.14
13 | SW 1573 | 0.961 | 0.624 | 0.995 | 0.929 | 0.606 | 0.682 | 0.488 | 0.561 | 0.452 | 1.02 | 0.917 | 1.06 | 1.14 | 1.04 | 0.918 | 0.943 | 0.9 | 0.966
